Here are results for 17 compounds from patent US9598387B2 (Southern Research Institute, priority 2012, dated 2017).

Assay [1] addresses human D2-long dopamine receptor (Homo sapiens (Human), UniProt P14416). Kind of assay: Radioligand binding (125I-IABN competition), D2. Particulars: HEK cell membranes expressing human D2-long. The procedure: (§1) The affinities of the target compounds were determined using radioligand binding experiments. […] Competition curves were modeled for a single site. Data from competition dose-response curves were analyzed using Tablecurve program (Jandel). IC50 values were converted to equilibrium dissociation constants (Ki values) using the Cheng and Prusoff correction.

The target of assay [2] is human D3 dopamine receptor (Homo sapiens (Human), UniProt P35462). Kind of assay: Radioligand binding (125I-IABN competition), D3. Particulars: for Ki: 125I-IABN competition, HEK cell membranes expressing human D3; for D2/D3 (D3 selectivity ratio, D2 Ki/D3 Ki): calculated D2 Ki/D3 Ki. The procedure: as §1
Sequence of human D3 dopamine receptor (P35462 whole entry): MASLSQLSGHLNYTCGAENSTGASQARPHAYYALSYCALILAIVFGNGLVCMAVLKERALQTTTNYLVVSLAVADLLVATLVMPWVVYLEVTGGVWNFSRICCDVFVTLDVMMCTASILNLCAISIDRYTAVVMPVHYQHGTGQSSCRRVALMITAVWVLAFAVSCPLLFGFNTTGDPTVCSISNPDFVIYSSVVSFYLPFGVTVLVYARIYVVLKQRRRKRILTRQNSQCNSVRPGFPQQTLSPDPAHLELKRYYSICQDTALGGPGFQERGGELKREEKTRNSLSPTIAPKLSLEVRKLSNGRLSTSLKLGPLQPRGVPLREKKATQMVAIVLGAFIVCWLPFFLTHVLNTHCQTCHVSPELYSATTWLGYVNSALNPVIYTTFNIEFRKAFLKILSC

Sequence of human D2-long dopamine receptor (P14416 whole entry): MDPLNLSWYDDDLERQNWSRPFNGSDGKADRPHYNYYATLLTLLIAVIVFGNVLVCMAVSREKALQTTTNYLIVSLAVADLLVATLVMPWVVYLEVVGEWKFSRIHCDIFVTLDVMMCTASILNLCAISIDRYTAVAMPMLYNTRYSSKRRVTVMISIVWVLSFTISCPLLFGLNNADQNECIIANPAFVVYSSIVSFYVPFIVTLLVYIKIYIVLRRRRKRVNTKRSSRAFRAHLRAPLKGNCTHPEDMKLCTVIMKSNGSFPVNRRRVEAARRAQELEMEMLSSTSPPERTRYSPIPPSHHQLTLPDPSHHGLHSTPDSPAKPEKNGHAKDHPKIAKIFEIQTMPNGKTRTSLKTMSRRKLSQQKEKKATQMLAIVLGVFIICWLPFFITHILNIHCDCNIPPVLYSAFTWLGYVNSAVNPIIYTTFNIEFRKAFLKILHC

In assay [1], `CC(C)(C)c1nc(N2CCN(CCCCNC(=O)N3CCc4ccccc43)CC2)cc(C(F)(F)F)n1` [Compound 71, N-(4-(4-(2-(tert-Butyl)-6-(trifluoromethyl)pyrimidin-4-yl)piperazin-1-yl)butyl)indoline-1-carboxamide] displayed a Ki of 281 ± 46.5 nM. In addition, in assay [2], the affinity, expressed as Ki, was 27.4 ± 3.8 nM and the “D2/D3 (D3 selectivity ratio, D2 Ki/D3 Ki)” value is given as 10.
For `Cc1ccc2[nH]c3c(c2c1)CN(C(=O)NCCCCN1CCN(c2cc(C(F)(F)F)nc(C(C)(C)C)n2)CC1)CC3` [Compound 90, N-(4-(4-(2-(tert-Butyl)-6-(trifluoromethyl)pyrimidin-4-yl)piperazin-1-yl)butyl)-8-methyl-3,4-dihydro-1H-pyrido[4,3-b]indole-2(5H)-carboxamide] the same measures were 1340 ± 166 nM, 128 ± 30.3 nM and 10.
For `CC(C)(C)c1nc(N2CCN(CCCCNC(=O)N3CCC(c4ccc(Cl)cc4)CC3)CC2)cc(C(F)(F)F)n1` [Compound 16, N-(4-(4-(2-(tert-Butyl)-6-(trifluoromethyl)pyrimidin-4-yl)piperazin-1-yl)butyl)-4-(4-chlorophenyl)piperidine-1-carboxamide] the same measures were 894 ± 200 nM, 21.2 ± 1.4 nM and 42.
For `O=C(NCCCCN1CCN(c2ccnc3cc(Cl)ccc23)CC1)N1CCC(c2ccccc2)CC1` [Compound 85, N-(4-(4-(7-Chloroquinolin-4-yl)piperazin-1-yl)butyl)-4-phenylpiperidine-1-carboxamide], the Ki in assay [1] came to 2790 ± 942 nM; in assay [2] it was 87.9 ± 22.8 nM. Further, the “D2/D3 (D3 selectivity ratio, D2 Ki/D3 Ki)” value in assay [2] is recorded as 32.
For the compound `CC(C)(C)c1nc(N2CCN(CCCCNC(=O)c3cn4ccccc4n3)CC2)c2ccccc2n1` [Compound 123, N-(4-(4-(2-(tert-Butyl)quinazolin-4-yl)piperazin-1-yl)butyl)imidazo[1,2-a]pyridine-2-carboxamide], the results for the Ki in assay [1] and in assay [2] were 1450 ± 275 nM and 78.2 ± 19.2 nM, respectively.
In assay [1], `CC(C)(C)c1nc(N2CCN(CCCCNC(=O)N3CCCC(c4ccccc4)CC3)CC2)cc(C(F)(F)F)n1` (centres unmarked) [Compound 82, N-(4-(4-(2-(tert-Butyl)-6-(trifluoromethyl)pyrimidin-4-yl)piperazin-1-yl)butyl)-4-phenylazepane-1-carboxamide] came in with a Ki of 668 ± 135 nM. Also, in assay [2], the Ki is 129 ± 21.9 nM and the “D2/D3 (D3 selectivity ratio, D2 Ki/D3 Ki)” value is recorded as 5.
`CC(C)(C)c1nc(N2CCN(CCCCNC(=O)N3CCc4[nH]c5ccccc5c4C3)CC2)cc(C(F)(F)F)n1` [Compound 89, N-(4-(4-(2-(tert-Butyl)-6-(trifluoromethyl)pyrimidin-4-yl)piperazin-1-yl)butyl)-3,4-dihydro-1H-pyrido[4,3-b]indole-2(5H)-carboxamide] registered an inhibition constant (Ki) in assay [1] of 1180 ± 180 nM. Also, in assay [2], the Ki came out at 110 ± 21.6 nM and the “D2/D3 (D3 selectivity ratio, D2 Ki/D3 Ki)” value was 11.
The compound `CC(C)(C)c1nc(N2CCN(CCCCNC(=O)N3CCN(c4ccccc4Cl)CC3)CC2)cc(C(F)(F)F)n1` [Compound 14, N-(4-(4-(2-(tert-Butyl)-6-(trifluoromethyl)pyrimidin-4-yl)piperazin-1-yl)butyl)-4-(2-chlorophenyl)piperazine-1-carboxamide] returned a Ki in assay [1] of 738 ± 88.8 nM. In assay [2], the Ki turned out to be 21.4 ± 3.4 nM and the “D2/D3 (D3 selectivity ratio, D2 Ki/D3 Ki)” value is on record as 34.
The compound `COc1cccc(N2CCN(C(=O)NCCCCN3CCN(c4cc(C(F)(F)F)nc(C(C)(C)C)n4)CC3)CC2)c1` [Compound 20, N-(4-(4-(2-(tert-Butyl)-6-(trifluoromethyl)pyrimidin-4-yl)piperazin-1-yl)butyl)-4-(3-methoxyphenyl)piperazine-1-carboxamide] displayed a Ki in assay [1] of 762 ± 159 nM. Also, in assay [2], the affinity corresponds to a Ki of 13 ± 0.7 nM and the “D2/D3 (D3 selectivity ratio, D2 Ki/D3 Ki)” value was 58.
For `CC(C)(C)c1nc(N2CCN(CCCCNC(=O)N3CCc4[nH]c5ccc(C#N)cc5c4C3)CC2)cc(C(F)(F)F)n1` [Compound 54, N-(4-(4-(2-(tert-Butyl)-6-(trifluoromethyl)pyrimidin-4-yl)piperazin-1-yl)butyl)-8-cyano-3,4-dihydro-1H-pyrido[4,3-b]indole-2(5H)-carboxamide] the same measures were 1050 ± 149 nM, 40.3 ± 7.2 nM and 26.
`CC(C)(C)c1nc(N2CCN(CCCCNC(=O)N3CCN(c4ccc(-c5ccccc5)cc4)CC3)CC2)cc(C(F)(F)F)n1` [Compound 45, 4-([1,1′-Biphenyl]-4-yl)-N-(4-(4-(2-(tert-butyl)-6-(trifluoromethyl)pyrimidin-4-yl)piperazin-1-yl)butyl)piperazine-1-carboxamide] registered a Ki in assay [1] of 621 ± 143 nM. In addition, in assay [2], the affinity, expressed as Ki, was 25.1 ± 5.5 nM and the “D2/D3 (D3 selectivity ratio, D2 Ki/D3 Ki)” value was 25.
As to `CC(C)(C)c1nc(N2CCN(CCCCNC(=O)N3CCN(c4ccnc5ccccc45)CC3)CC2)cc(C(F)(F)F)n1` [Compound 34, N-(4-(4-(2-(tert-Butyl)-6-(trifluoromethyl)pyrimidin-4-yl)piperazin-1-yl)butyl)-4-(quinolin-4-yl)piperazine-1-carboxamide], in assay [1], the inhibition constant (Ki) worked out at 524 ± 42.2 nM. Moreover, in assay [2], the Ki is 12.7 ± 2.5 nM and the “D2/D3 (D3 selectivity ratio, D2 Ki/D3 Ki)” value is listed as 41.
The matching figures for `CC(C)(C)c1nc(N2CCN(CCCCNC(=O)N3CCN(c4cccc(Cl)c4)CC3)CC2)cc(C(F)(F)F)n1` [Compound 15, N-(4-(4-(2-(tert-Butyl)-6-(trifluoromethyl)pyrimidin-4-yl)piperazin-1-yl)butyl)-4-(3-chlorophenyl)piperazine-1-carboxamide]: 582 ± 127 nM, 19.3 ± 1.6 nM and 30.
For `O=C(NCCCCN1CCN(c2ccnc3ccccc23)CC1)c1nc2ccccn2c1Cl` [Compound 129, 3-Chloro-N-(4-(4-(quinolin-4-yl)piperazin-1-yl)butyl)imidazo[1,2-a]pyridine-2-carboxamide] the same measures were 3560 ± 1950 nM, 323 ± 75 nM and 11.
For `COc1ccc2[nH]c3c(c2c1)CN(C(=O)NCCCCN1CCN(c2cc(C(C)(C)C)nc(C)n2)CC1)CC3` [Compound 96, N-(4-(4-(6-(tert-Butyl)-2-methylpyrimidin-4-yl)piperazin-1-yl)butyl)-8-methoxy-3,4-dihydro-1H-pyrido[4,3-b]indole-2(5H)-carboxamide] the same measures were more than 5000 nM, 74.9 ± 15 nM and more than 66.
For the compound `CC(C)(C)c1nc(N2CCN(CCCCNC(=O)N3CCN(c4ccc(Cl)c(Cl)c4)CC3)CC2)cc(C(F)(F)F)n1` [Compound 60, N-(4-(4-(2-(tert-Butyl)-6-(trifluoromethyl)pyrimidin-4-yl)piperazin-1-yl)butyl)-4-(3,4-dichlorophenyl)piperazine-1-carboxamide], the Ki in assay [1] worked out at 570 ± 119 nM; in assay [2], 46.6 ± 9.1 nM. Also, the “D2/D3 (D3 selectivity ratio, D2 Ki/D3 Ki)” value in assay [2] was 12.
Turning to `CC(C)N1CCN(C(=O)NCCCCN2CCN(c3cc(C(F)(F)F)nc(C(C)(C)C)n3)CC2)CC1` [Compound 66, N-(4-(4-(2-(tert-Butyl)-6-(trifluoromethyl)pyrimidin-4-yl)piperazin-1-yl)butyl)-4-isopropylpiperazine-1-carboxamide], the inhibition constant (Ki) in assay [1] stood at 125 ± 25.3 nM; in assay [2], 9.6 ± 2.2 nM. Further, the “D2/D3 (D3 selectivity ratio, D2 Ki/D3 Ki)” value in assay [2] is given as 13.
